The values that follow come from patent US6590140B1, “Metal-regulated transporters and uses therefor” (Trustees of Dartmouth College, priority 1996, dated 2003).

The test system of assay [1] is divalent cation uptake system. The note with it: total zinc; earlier studies (Fuhrmann and Rothstein 1968); read-out: apparent Km of zinc uptake by the divalent cation uptake system; cited from earlier work.
For another assay, the system named is wild type (DY1457) cells. As to the kind of experiment: Zinc-limited growth, wild type yeast. The format is cell-based, Saccharomyces cerevisiae. The settings on record: LZM, 16 hours. On the procedure: Strains used were DY1457 (MATα ade6 can1 his3 leu2 trp1 ura3) and ZHY1 (MaTα ade6 can1 his3 leu2 trp1 ura3 zrt1:: LEU2). Yeast were grown in standard culture media (SD, YPD) (Eide, D., Davis-Kaplan S., Jordan, I., Sipe, D., and Kaplan, J. (199: 2) J. Biol. Chem. 267, 20774-20781) supplemented with necessary auxotrophic requirements and either 2% glucose or 2% galactose. A zinc-limiting medium (LZM) was prepared in the same manner as LIM (Eide and Guarenete (1992) J. Gen. Microbiol. 138:347-354) except that […]. Cell number in liquid cultures was determined by measuring the optical density of cell suspensions at 600 nm (A600) and converting to cell number with a standard curve.
Strains used were DY1457 (MATα ade6 can1 his3 leu2 trp1 ura3), ZHY1 (AMTα ade6 can1 his3 leu2 trp1 ura3 zrt1::LEU2), ZHY2 (MATα ade6 can1 his3 leu2 trp1 ura3 zrt2::HIS3), and ZHY3 (MATα ade6 can1 his3 leu2 trp1 ura3 zrt1::LEU2 zrt2::HIS3). […] The concentrations of free (i.e. unchelated) zinc were calculated using MAXCHELATOR software (Chris Patton, Stanford University). Cell number in liquid cultures was determined by measuring the absorbance of cell suspensions at 600 nm (OD600) and converting to cell number with a standard curve. […]

By Km is commonly meant the concentration of substrate that gives half-maximal velocity.

For the molecule `[Zn+2]` [zinc], in assay [1], the Km is around 500 µM. In the assay on wild type (DY1457) cells, the “calculated free zinc [Zn]F sufficient for maximum growth yield” value is around 6 pM and the “total zinc sufficient for maximum number of cell divisions” value is 10 µM.
